According to PubChem BioAssay (NCI):
Several values for one entry are separate records, joined by “and”; a condition that tells them apart may be missing. Identical values can stand only once.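 48-hour exposure; five concentrations; linearly interpolated endpoints. GI50 is the concentration that inhibits growth by half. At the TGI there is no net growth.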

How the values were obtained:
Assay in all cases: NCI tumour cell line growth inhibition, 48 h
SF-268 CNS = system: SF-268 CNS
RXF 393 renal = system: RXF 393 renal
TK-10 renal = system: TK-10 renal
EKVX NSCLC = system: EKVX NSCLC
SF-295 CNS = system: SF-295 CNS
OVCAR-5 ovarian = system: OVCAR-5 ovarian
MOLT-4 leukemia = system: MOLT-4 leukemia
RPMI-8226 leukemia = system: RPMI-8226 leukemia
HCC-2998 colon = system: HCC-2998 colon
NCI-H23 lung = system: NCI-H23 lung

| Structure (SMILES) | TGI (SF-268 CNS) [µM] | TGI (RXF 393 renal) [µM] | TGI (TK-10 renal) [µM] | TGI (EKVX NSCLC) [µM] | TGI (SF-295 CNS) [µM] | TGI (OVCAR-5 ovarian) [µM] | TGI (MOLT-4 leukemia) | TGI (RPMI-8226 leukemia) [µM] | TGI (HCC-2998 colon) [µM] | TGI (NCI-H23 lung) [µM] | GI50 (SF-268 CNS) [µM] | GI50 (RXF 393 renal) [µM] | GI50 (TK-10 renal) [µM] | GI50 (EKVX NSCLC) [µM] | GI50 (SF-295 CNS) [µM] | GI50 (OVCAR-5 ovarian) [µM] | GI50 (NCI-H23 lung) [µM] | GI50 (MOLT-4 leukemia) [µM] | GI50 (HCC-2998 colon) [µM] | GI50 (RPMI-8226 leukemia) [µM] |
| --- | --- | --- | --- | --- | --- | --- | --- | --- | --- | --- | --- | --- | --- | --- | --- | --- | --- | --- | --- | --- |
| Nc1nc(N)c2ncn(-c3ccc(Cl)c(Cl)c3)c2n1 | > 100 | 50.8 | 70.6 | > 100 | 69.6 | > 100 | 42.5 µM | 75.2 | > 100 | 40.4 | – | – | – | – | – | – | – | – | – | – |
| C=C1C(=O)OC2/C=C(\C)C(=O)CC3OC(C)(C)OC3(C)CC(OC(=O)/C(C)=C/C)C12 (stereo not drawn) | > 61.3 | 36.7 | 27.9 | 34.2 | 98.2 | 47.2 | 37.2 µM | > 100 | 34.9 | 57.8 | – | – | – | – | – | – | – | – | – | – |
| C=C(C)[C@@H]1CC[C@]2(C(=O)Nc3ccccn3)CC[C@]3(C)[C@H](CC[C@@H]4[C@@]5(C)CCCNC(C)(C)[C@@H]5CC[C@]43C)[C@@H]12 | 4.79 | 3.27 | 5.45 | 2.53 | 3.07 | 3.89 | – | – | – | 3.77 | 1.95 | 1.79 | 2.26 | 1.06 | 1.68 | 1.92 | 1.85 | – | – | – |
| O=S(=O)(O)c1cc(N=Nc2cc(S(=O)(=O)O)c3ccccc3c2O)ccc1/C=C/c1ccc(N=Nc2cc(S(=O)(=O)O)c3ccccc3c2O)cc1S(=O)(=O)O | > 1000 | > 1000 | 220 | > 632 | > 731 | 472 | 51.1 µM and 82.5 µM | > 311 | > 1000 | 975 | – | – | – | – | – | – | – | 36.3 | > 1000 | – |
| c1ccc(-n2cnnc2-c2nsc3ccccc23)cc1 | > 100 | > 100 | > 100 | > 100 | – | > 100 | > 100 µM | > 100 | > 100 | > 100 | – | – | – | – | – | – | – | – | – | – |
| C=C1CC23CCC4C(C)(C(=O)O)CCCC4(C)C2CCC1C3 (stereo not drawn) | > 100 | > 100 | > 100 | 75.5 | > 100 | > 100 | – | 91.6 | 78.6 | > 100 | – | – | – | – | – | – | – | – | – | – |
| O=[N+]([O-])c1ccc(/C=N\Nc2ccc([N+](=O)[O-])cn2)cc1 | > 100 | > 100 | > 100 | > 100 | > 100 | > 100 | > 100 µM | > 100 | > 100 | > 100 | – | – | – | – | – | – | – | – | – | – |
| CCN(CC)C(=S)SC(=S)N(CC)CC | > 100 | > 100 | > 100 | > 100 | > 100 | > 100 | > 72.8 µM | 57.4 | > 100 | > 80.6 | – | – | – | – | – | – | – | – | – | – |
| N=C(N)c1ccc(-c2ccc(-c3cncc4ccccc34)s2)cc1F | – | 3.67 | – | – | 3.27 | 3.1 | – | 4.49 | – | – | – | 1.75 | – | – | 1.72 | 1.6 | – | – | – | 1.64 |
| O=C(/C=c1\oc(=O)/c(=C/C(=O)c2ccc(Cl)cc2)oc1=O)c1ccc(Cl)cc1 | > 100 | > 100 | > 100 | > 100 | > 100 | > 100 | 56 µM | > 100 | > 100 | > 100 | – | – | – | – | – | – | – | – | – | – |
| CC(C)=CCc1c(O)ccc2c1OC1c3ccc(O)c(CC=C(C)C)c3OCC21 (stereo not drawn) | 27 | 22.1 | – | 26.8 | 24.3 | 27.1 | 16 µM | 17.1 | 26 | > 55.1 | – | – | – | – | – | – | – | – | – | – |
| C=C(C)C(=O)OC1C(C(C)CCCO)=C(CO)CC2OC(=O)C(=C)C21 (stereo not drawn) | 48.8 | 27.2 | > 100 | 87.2 | > 100 | 54.3 | 88.9 µM | 91.9 | 31.8 | 43 | – | – | – | – | – | – | – | – | – | – |
| COc1cc(C(C)(C)C)cc(OC)c1C(O)(c1c(OC)cc(C(C)(C)C)cc1OC)c1c(OC)cc(C(C)(C)C)cc1OC | – | 0.871 | – | – | 0.479 | 1.02 | – | 0.725 | 1.36 | – | – | 0.324 | – | – | 0.221 | 0.327 | – | – | 0.429 | 0.233 |
| C=C(C)C1CC2=C(O1)C(=O)c1ccccc1C2=O (stereo not drawn) | – | 33 | 46.3 | 60.3 | – | – | 32.8 µM | 44.5 | 39.3 | 45.1 | – | – | – | – | – | – | – | – | – | – |
